Laboratory results taken from paper PMC10412597, “Small molecule branched-chain ketoacid dehydrogenase kinase (BDK) inhibitors with opposing effects on BDK protein levels” (Nature Communications, 2023).
Where two headings read alike, the source gives them in different places.

Assays:
[1] = biological target: T1, BDK-BCKDHE2 (biotinylated BDK with full length non-lipoylated E2 core subunit) (Homo sapiens, UniProt O14874); assay: AlphaLISA BDK-E2 protein-protein interaction, signal decrease; assay type: binding
T1 construct: gene BCKDK; E2 with N-terminal FLAG and TEV site, DBT residues 62-482, bacterial expression, non-lipoylated; with Lipoamide acyltransferase component of branched-chain alpha-keto acid dehydrogenase complex, mitochondrial

[2] = biological target: T2, BDK (branched-chain ketoacid dehydrogenase kinase, BCKDK; hBDK) (Homo sapiens, UniProt O14874); assay: SPR; assay type: binding
T2 construct: purified recombinant kinase; construct details only in Supplementary Information; human stated for the crystal structures
Source text: SPR on BDK (branched-chain ketoacid dehydrogenase kinase, BCKDK; hBDK)

Serotonin 5-HT2a = biological target: T3, Serotonin 5-HT2a (Homo sapiens, UniProt P28223); set-up: Cerep Bioprint off-target panel, functional receptor agonism or antagonism; conditions: agonist
T3 construct: gene HTR2A
T3 sequence (P28223 whole entry): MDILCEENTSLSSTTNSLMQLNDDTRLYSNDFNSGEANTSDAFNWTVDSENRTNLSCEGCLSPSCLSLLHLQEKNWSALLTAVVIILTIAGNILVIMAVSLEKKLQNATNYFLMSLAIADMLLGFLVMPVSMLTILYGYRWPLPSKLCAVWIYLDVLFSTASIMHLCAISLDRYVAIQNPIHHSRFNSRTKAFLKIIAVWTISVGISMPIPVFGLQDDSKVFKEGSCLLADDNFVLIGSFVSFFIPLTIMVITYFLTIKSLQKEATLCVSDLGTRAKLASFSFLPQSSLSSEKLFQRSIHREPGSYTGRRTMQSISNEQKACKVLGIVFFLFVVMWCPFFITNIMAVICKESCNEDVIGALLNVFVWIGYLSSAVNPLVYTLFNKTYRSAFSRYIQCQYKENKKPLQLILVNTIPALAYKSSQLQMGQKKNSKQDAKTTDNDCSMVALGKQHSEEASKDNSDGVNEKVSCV
Protocol: To discover a potent and selective BDK inhibitor, a subset of the Pfizer compound collection was screened. […] Off target activity was assessed in both CEREP and kinase panels (Supplementary Tables 2, 3).

[3] = biological target: T1, BDK-BCKDHE2 (biotinylated BDK with full length non-lipoylated E2 core subunit); assay: AlphaLISA BDK-E2 protein-protein interaction, signal increase; assay type: binding
[4] = biological target: T4, BDK in human skeletal myocytes (Homo sapiens, UniProt O14874); assay: AlphaLISA SureFire Ultra BCKDH phosphorylation in human skeletal myocytes; assay type: cell-based; conditions: intact cells; read-out: Human skeletal myocyte IC50 (nM)^a
T4 construct: gene BCKDK; endogenous full kinase in human skeletal myocytes; read-out BCKDH E1alpha phosphorylation
Source text: AlphaLISA SureFire Ultra BCKDH phosphorylation in human skeletal myocytes on BDK in human skeletal myocytes

[5] = biological target: T2, BDK (branched-chain ketoacid dehydrogenase kinase, BCKDK; hBDK); assay: FRET assay of BDK phosphorylation of E2 RBD-E1 peptide substrate; assay type: biochemical; conditions: read-out: BDK in vitro IC50 (nM)^a
Source text: FRET assay of BDK phosphorylation of E2 RBD-E1 peptide substrate on BDK (branched-chain ketoacid dehydrogenase kinase, BCKDK; hBDK)

[6] = biological target: T2, BDK (branched-chain ketoacid dehydrogenase kinase, BCKDK; hBDK); assay: biochemical; set-up: TR-FRET BDK kinase assay, phosphorylation of LBD-E1 substrate, 15 uM ATP; conditions: read-out: BDK in vitro IC50
Protocol: 705 covered with a lid and allowed to incubate at room temperature for 90 min. Final concentration of 706 LBD-E1 substrate was 50 nM and final concentration of ATP was 15 µM. Following incubation, 707 the enzyme reactions were stopped by adding 5 µL of 4X stop/primary antibody solution 708 containing 100 mM (final) EDTA, 2 nM (final) anti-His Eu antibody, and 1:1000 anti-pE1 antibody 709 in assay buffer. The plates were covered and incubated at room temperature for 30 min. Finally, 710 5 µL of 4X detection reagent consisting of 20 nM (final) anti-rabbit Ulight antibody and 1X LANCE 711 detection buffer in dH2O was then added. The plates were centrifuged for 30 seconds at 113 x g. 712 After a 60 min incubation, the plates were read on an EnVision® MultiReader in TR-FRET mode 713 (excitation 320 nm: emissions 665 nm). The raw data from the EnVision® MultiReader was 714 expressed as a ratio and was analyzed using proprietary software (Activity Base). […] IC50 values were determined from the percent effect data using a 4-parameter logistic dose 718 response model (Activity Base). To discover a potent and selective BDK inhibitor, a subset of the Pfizer compound collection was screened. […] Off target activity was assessed in both CEREP and kinase panels (Supplementary Tables 2, 3).

[7] = biological target: T2, BDK (branched-chain ketoacid dehydrogenase kinase, BCKDK; hBDK); assay: biochemical; set-up: SPR binding to captured BDK, 1:1 binding model; conditions: read-out: BDK SPR KD
Protocol: 828 Tween-20 and 2% DMSO. The same buffer was used as the running buffer during the 829 experiments. Compound samples were injected at a flow rate of 30 µL/min for 120 seconds of 830 association time followed by at least 300 seconds of dissociation period. The compounds were 831 tested in a concentration series consisting of at least 6 samples made with 2-fold dilution. The 832 highest concentration was selected based on compound potency in the biochemical assay or 833 binding affinity observed in a previous experiment. Multiple blank injections were run before and 834 after each compound series to allow double reference subtraction during data processing and 835 analysis. Radicicol was tested in every experiment as a positive control to assess activity of the 836 captured protein on the surface. A DMSO curve was run during each experiment to properly 837 correct for excluded volume. The data were processed and analyzed using Bruker Analyzer, 838 Scrubber and Biaeval softwares to calculate binding affinities and kinetics by fitting the data to 839 1:1 binding model. To discover a potent and selective BDK inhibitor, a subset of the Pfizer compound collection was screened. […] Off target activity was assessed in both CEREP and kinase panels (Supplementary Tables 2, 3).

IC50 [6] [nM]	Kd [7] [nM]	Structure (SMILES)	Kd [2] [nM]	IC50 [5] [nM]	further results
		O=C(O)c1sc2cc(F)sc2c1Cl [PF-07208254]	84 ± 8.7		IC50 [1]: 56 ± 26 nM; % (agonism) PF-07208254 (Serotonin 5-HT2a; 100 µM): -5%
		CC(C)COc1ccc(-c2nc(-c3ccccc3C(=O)O)cs2)cn1 [PF-07238025]	4.4 ± 1.1	4.5 ± 0.58	EC50 ([3]; stabilises BDK-E2 interaction, pH […] KCl, […] MgCl2, […] DTT): 19 ± 1.7 nM; IC50 [4]: 59 ± 10 nM
		CCC1(COc2ccc(-c3csc(-c4ccccc4C(=O)O)n3)cn2)CC1 [PF-07247685]	0.68 ± 0.38	0.86 ± 0.15	EC50 [3]: 2.2 ± 0.35 nM; % (agonism) PF-07247685 (Serotonin 5-HT2a; 10 µM): 3%
600 ± 51	75 ± 2	O=C(O)c1sc2cc(Cl)sc2c1Cl [S1]			
210 ± 10	270 ± 31	O=C(O)c1cc2sc(F)cc2s1 [S2]			
1200 ± 490	5800 ± 4400	Cc1ccc(-c2nc(-c3ccccc3C(=O)O)cs2)cc1 [S3]			
